Test results published in patent US4847297A, “Use of penicillamine for treating immune damaging illnesses” (Degussa Aktiengesellschaft, priority 1985, dated 1989).

How the values were obtained:
[1] = tested on: HTLV-III virus (LAV-I virus); assay: inhibition of HTLV-III (LAV-I) virus replication in cell culture; format: cell-based, HTLV-III virus in H9 cells (human T-cell line); settings: in vitro; for inhibition at 20 µg/mL / inhibition at 40 µg/mL: Human immunodeficiency virus 1, H9, 96 h, cell culture; for inhibition at 20 µg/mL: 20 μg/ml, read-out: prevention of replication of HTLV-III virus (LAV-I virus); for inhibition at 40 µg/mL: 40 μg/ml, read-out: effectiveness in vitro (prevention of virus replication)
Description: At a concentrate of 20 μg/ml the replication of HTLV-III--virus (LAV-I-virus) is prevented in a cell culture with L-penicillamine to an extent of about 95% and with D-penicillamine to about 80%. At a concentration of 40 μg/ml, the effectiveness of both L-penicillamine and D-penicillamine in vitro is nearly 100%.
(§1) HTLV-III virus infection of H9 cells (human T-cell line of a leukemia patient of the National Cancer Institute, Bethesda, Md., USA); the H9 cells were trreated with Polybrene (Hexadimethrine bromide) (2 μg/ml) for 30 minutes at 37° C., subsequently the Polybrene was washed out and the cells were infected with 2×10^8 HTLV virus particles per 4×10^5 H9 cells. Before the infection, the virus was incubated with the material at various concentrations for 45 minutes at 37° C. For controls, the virus was incubated under the same experimental conditions but without addition of the material. The cell cultures were analyzed on the 4th day after infection as follows:
(§2) Immunofluorescence analysis: The effect of D- and L-penicillamine on the propagation of the HTLV-III virus in H9 cells was determined by measuring the proteins p15 and p24 (molecular weight 15,000 respectively 24,000) present in HTLV-III. The immunofluorescence analysis was carried out on fixed methanol:acetone (1:1) cells using monoclonal antibodies (National Cancer Institute USA) against HTLV-III p15 and p24. The infected cells treated with or without penicillamine were secured on toxoplasmosis glass slides. After 30 minutes treatment with methanol-acetone (1:1) at room temperature, the glass slides were stored in closed plastic containers at -20° C. until use. The monoclonal antibodies were added to duplicate wells, incubated at room temperature in a moist chamber for 1 hour and washed with PBS (phosphate buffered saline) solution containing 0.25% Triton X-100 for two hours. The cells were then exposed to goatantimouse IgG (Capell Labs.) bound with fluorescein (FITC) for 1 hour and washed with PBS buffer solution containing 0.25% Triton X-100 overnight. The glass sides were mounted with 50% glycerine and the cell fluorescence observed with a Zeiss fluorescence microscope.

[2] = tested on: HTLV-III virus (viral protein p15); assay: propagation of HTLV-III in H9 cells, formation of viral protein p15, immunofluorescence with monoclonal antibodies; format: cell-based, HTLV-III virus in H9 cells (human T-cell line); settings: for prevention of the formation of p15 virus protein (in words): FIG. 1, concentration dependence; for inhibition at 40 µg/mL: Human immunodeficiency virus 1, H9, 40 μg/ml, 4th day after infection
Description: FIG. 1 is a graph of the effect of D- and L-penicillamine on the propagation of HTLV-III in H9 cells through the function of the concentration determined by the formation of the viral protein 15; and
as §1, §2
(§3) The effect of D- and L-penicillamine on the propagation of HTLV-III in H9 cells was determined through the function of the material concentration by the formation of the viral proteins p15 (FIG. 1) and p24 (FIG. 2) in an immunofluorescence assay with monoclonal antibodies.

[3] = tested on: HTLV-III virus (viral protein p24); assay: propagation of HTLV-III in H9 cells, formation of viral protein p24, immunofluorescence with monoclonal antibodies; format: cell-based, HTLV-III virus in H9 cells (human T-cell line); settings: for prevention of the formation of p24 (in words): FIG. 2, same manner as with p15; for IC100: Human immunodeficiency virus 1, H9, 96 h, p24, FIG. 2, 4th day after infection, read-out: concentration needed for complete inactivation of the viral replication
Description: FIG. 2 is a similar graph where the determination was by the formation of viral protein p24.
as §1, §2, §3

in vitro = format: cell-based, human; settings: human, h9 cells
Description: as §1
(§4) In order to show the selectivity of the effect on the replication of HTLV-III virus, the effect of D- and L-penicillamine on the growth of H9 cells can be examined.
(§5) The number of cells was determined 4 days after the experiment began.

[4] = tested on: HTLV-III infected H9 cells; assay: growth of HTLV-III infected H9 cells; format: cell-based, human; settings: for Number of cells/ml × 10^-6, infected / effect on number of infected H9 cells (in words): 4 days after infection; for Number of cells/ml × 10^-6, infected: control 0.18; for effect on number of infected H9 cells (in words): increasing concentration; for protective effect on T-cells: infected H9 cells
Description: as §1, §4, §5
4 days after the infection with the HTLV-III virus the number of H9 cells is reduced from 1.24×10^6 to 0.18×10^6.

[5] = in vivo, cited from earlier work
[6] = tested on: plasma proteins (preponderantly albumen); settings: cited from earlier work
non-infected H9 cells = assay: in vitro; format: cell-based, human
Description: as §1, §4, §5

SMILES | inhibition at 20 µg/mL [1] [%] | inhibition at 40 µg/mL [1] [%] | prevention of the formation of p15 virus protein (in words) [2] | inhibition at 40 µg/mL [2] [%] | prevention of the formation of p24 (in words) [3] | IC100 [3] [µg/mL] | Number of cells/ml × 10^-6, infected ([4]; 30 μg/ml) [cells/ml × 10^-6] | Number of cells/ml × 10^-6, infected ([4]; 40 μg/ml) [cells/ml × 10^-6] | Number of cells/ml × 10^-6, infected ([4]; 100 μg/ml) [cells/ml × 10^-6] | effect on number of infected H9 cells (in words) [4] | protective effect on T-cells [4] | further results
CC(C)(S)[C@@H](N)C(=O)O [D-penicillamine] | ~80 | ~100 | concentration dependent prevention of the formation of p15 virus protein | 98.5 to 99.4 | prevent the formation of p24 | 40 | 0.27 | 0.35 | 0.8 | considerable increase of the cell number | protective effect on T-cells | MCC at 96 h (in vitro): > 100 µg/mL; resorption after oral administration ([5]; po): about 60%; distribution over the entire organism [5]: distributed relatively quickly over the entire organism; elimination in unchanged form [5]: up to 10%; route and form of elimination [5]: predominantly via the kidneys, the greatest part as disulfide; binding to plasma proteins [6]: bound to plasma proteins (preponderantly albumen); free (not protein bound) concentration with increasing dosage [6]: obviously increases with increasing dosage
CC(C)(S)[C@H](N)C(=O)O [penicillamine] |  |  |  |  |  |  |  |  |  |  |  | inhibition of virus replication (in words) [1]: can greatly inhibit the virus replication; toxicity to the normal cell growth (non-infected H9 cells): shows no toxicity to the normal cell growth
CC(C)(S)[C@H](N)C(=O)O [L-penicillamine] | ~95 | ~100 | concentration dependent prevention of the formation of p15 virus protein | 98.5 to 99.4 | prevent the formation of p24 | 40 | 0.35 | 0.38 | 0.98 | considerable increase of the cell number | protective effect on T-cells | effectiveness at lower concentration, L- versus D-penicillamine (p15) ([2]; lower concentration, FIG. 1): more effective than D-penicillamine
